Laboratory results published in ChEMBL document CHEMBL4840357, “Functionalized Dioxonaphthoimidazoliums: A Redox Cycling Chemotype with Potent Bactericidal Activities against Mycobacterium tuberculosis” (J Med Chem, 2021).
In brackets after ≈: the same amount, converted by molar mass. Activity calls are given as the source filed them. No cut-off for these calls is given here.

What was measured:
[1] = test system: Mycobacterium tuberculosis variant bovis BCG; experiment: Antimycobacterial activity against Mycobacterium bovis BCG ATCC 35734 incubated for 5 days by broth dilution method; assay type: functional; conditions: ATCC 35734, 120 h, time 5 day
[2] = test system: Mycobacterium tuberculosis variant bovis BCG; experiment: Induction of ROS generation in Mycobacterium bovis BCG ATCC 35734 at <= 1 times of MIC90 after 90 mins by cellrox-green reagent based assay; assay type: functional, organism-based
[3] = test system: Mycobacterium tuberculosis variant bovis BCG; experiment: Induction of oxidative stress Mycobacterium bovis BCG-pfurA-RFP ATCC 35734 assessed as activation of pfurA at 0.5 to 2 times MIC90 after 24 hrs by fluorescence assay; assay type: functional, organism-based
[4] = test system: Mycobacterium tuberculosis variant bovis BCG; experiment: Induction of ROS generation in Mycobacterium bovis BCG ATCC 35734 at 2 times of MIC90 after 90 mins by cellrox-green reagent based assay; assay type: functional, organism-based
[5] = test system: Mycobacterium tuberculosis variant bovis BCG; experiment: Ratio of MIC for antimycobacterial activity against Mycobacterium bovis BCG ATCC 35734 in absence of glycerol to MIC for antimycobacterial activity against Mycobacterium bovis BCG ATCC 35734 in presence of glycerol; assay type: functional
[6] = test system: Mycobacterium tuberculosis variant bovis BCG; experiment: Bactericidal activity against Mycobacterium bovis BCG ATCC 35734 incubated for 5 days by broth dilution method; assay type: functional; conditions: ATCC 35734, 120 h, time 5 day, read-out: MBC99.9
[7] = test system: Mycobacterium tuberculosis variant bovis BCG; experiment: Induction of ROS generation in Mycobacterium bovis BCG ATCC 35734 after 90 mins by cellrox-green reagent based assay; assay type: functional, organism-based
[8] = test system: Cell membrane; experiment: Induction of cell envelope stress in Mycobacterium bovis BCG ATCC 35734 expressing piniBAC RFP at 100 times MIC90 after 24 hrs by fluorescence analysis; assay type: functional, subcellular; conditions: Mycobacterium tuberculosis variant bovis BCG
[9] = test system: Mycobacterium tuberculosis variant bovis BCG; experiment: Antimycobacterial activity against Mycobacterium bovis BCG ATCC 35734 carrying katG loss-of-function mutant assessed fold reduction in MIC at 1 to 2 times of MIC90 incubated for 5 days under solid agar medium; assay type: functional, organism-based; conditions: time 5.0 day
[10] = test system: Mycobacterium tuberculosis variant bovis BCG; experiment: Induction of ROS generation in Mycobacterium bovis BCG ATCC 35734 at 2 times of MIC90 measured upto 24 hrs by cellrox-green reagent based assay; assay type: functional, organism-based; conditions: time hrs <=24
[11] = test system: Mycobacterium tuberculosis variant bovis BCG; experiment: Antimycobacterial activity against Mycobacterium bovis BCG ATCC 35734 carrying katG loss-of-function mutant assessed fold reduction in MIC at 1 to 2 times of MIC90 incubated for 5 days under liquid medium; assay type: functional, organism-based; conditions: time 5.0 day
[12] = test system: Mycobacterium tuberculosis variant bovis BCG; experiment: Induction of oxidative stress Mycobacterium bovis BCG-pfurA-RFP ATCC 35734 assessed as activation of pfurA after 24 hrs by fluorescence assay; assay type: functional, organism-based

Row | Structure (SMILES) | MIC90 [1] [µM] | other results
1 | CCC(C)[n+]1c2c(n(CC)c1C)C(=O)c1ccccc1C2=O (stereo not given) | 11 | 
2 | CCC[n+]1c2c(n(C)c1C)C(=O)c1ccccc1C2=O | 18 | 
3 | Cc1n(CC(C)C)c2c([n+]1C)C(=O)c1ccccc1C2=O | 6.3 | 
4 | CCCCn1c2c([n+](C3CCCCCCC3)c1C)C(=O)c1ccccc1C2=O | 0.6 | 
5 | CC[n+]1c2c(n(C(C)C)c1C)C(=O)c1ccccc1C2=O | 15 | 
6 | CCCCCCCCn1c2c([n+](CCCC)c1C)C(=O)c1cccnc1C2=O | 3.3 | 
7 | CCCCCCCCn1c(C)nc2c1C(=O)c1ccccc1C2=O | 11 (≈ 3.57 µg/mL) | Activity [2]: inactive; Activity [3]: inactive; Activity [4]: Active
8 | CCn1c2c([n+](CC)c1C)C(=O)c1ccccc1C2=O | 17 | 
9 | CCCCCC[n+]1c2c(n(CC(C)C)c1C)C(=O)c1ccccc1C2=O | 0.3 | Ratio [5]: < 2; MIC50 [1]: 0.18 µM
10 | CCCn1c2c([n+](CCC)c1C)C(=O)c1ccccc1C2=O | 25 | 
11 | CCCCCCCCn1c2c([n+](C3CCC4(CCCCC4)CC3)c1C)C(=O)c1ccccc1C2=O | 0.2 | MBC [6]: 0.2 µM; MIC50 [1]: 0.11 µM
12 | CCCCCCCCCC[n+]1c2c(n(CC(C)C)c1C)C(=O)c1ccccc1C2=O | 0.36 | 
13 | CCCCCCCCn1c2c([n+](CCCCCCCC)c1C)C(=O)c1cccnc1C2=O | 10 | 
14 | CCCCCCCCn1c(C)nc2ccccc21 | 23 (≈ 5.62 µg/mL) | 
15 | CCCC[n+]1c2c(n(C)c1C)C(=O)c1ccccc1C2=O | 6.7 | 
16 | CC[n+]1c2c(n(CC(C)C)c1C)C(=O)c1ccccc1C2=O | 4.9 | 
17 | CCC(C)[n+]1c2c(n(C)c1C)C(=O)c1ccccc1C2=O (stereo not given) | 13 | 
18 | Cc1n(C(C)C)c2c([n+]1C1CC1)C(=O)c1ccccc1C2=O | 35 | 
19 | CCCCCn1c(C)nc2c1C(=O)c1ccccc1C2=O | 39 (≈ 11 µg/mL) | 
20 | CCCCn1c2c([n+](C3CCCCC3)c1C)C(=O)c1ccccc1C2=O | 1.4 | 
21 | CCCCn1c2c([n+](CC)c1C)C(=O)c1ccccc1C2=O | 7.7 | 

Row | Structure (SMILES) | MIC90 [1] [µM] | other results
22 | CCCCCCCCn1c(C)[n+](CCCC)c2ccccc21 | > 50 | 
23 | CCCCCCCCn1c2c([n+](CCCCCCCC)c1C)C(=O)c1ccncc1C2=O | 1.1 | 
24 | Cc1n(CC(C)C)c2c([n+]1CC(C)C)C(=O)c1ccccc1C2=O | 1.9 | 
25 | Cc1n(CC(C)C)c2c([n+]1C(C)C)C(=O)c1ccccc1C2=O | 5.6 | 
26 | CCCn1c(C)nc2c1C(=O)c1ccccc1C2=O | > 50 | 
27 | Cc1n(C(C)C)c2c([n+]1C(C)C)C(=O)c1ccccc1C2=O | 25 | 
28 | CCCCCCn1c2c([n+](C(C)CC)c1C)C(=O)c1ccccc1C2=O (stereo not given) | 0.66 | 
29 | CCCCn1c2c([n+](CCCC)c1C)C(=O)c1ccccc1C2=O | 1.9 | 
30 | CCCCCCCCCCCCn1c2c([n+](CCCCCCCCCCCC)c1C)C(=O)c1ccccc1C2=O | 4.8 | 
31 | Cc1n(CC(C)C)c2c([n+]1C1CC1)C(=O)c1ccccc1C2=O | 6 | 
32 | CCCCCCCCCCCCn1c(C)nc2ccccc21 | 10 (≈ 3 µg/mL) | 
33 | CCC(C)[n+]1c2c(n(CC(C)C)c1C)C(=O)c1ccccc1C2=O (stereo not given) | 3.6 | 
34 | CCCCCCn1c(C)nc2c1C(=O)c1ccccc1C2=O | 15 (≈ 4.45 µg/mL) | Activity [2]: inactive; Activity [3]: inactive; Activity [4]: Active
35 | CCCCn1c2c([n+](CCC3CCCCC3)c1C)C(=O)c1ccccc1C2=O | 0.37 | 
36 | CCCCCCCCn1c2c([n+](CCCCC)c1C)C(=O)c1ccccc1C2=O | 0.33 | 
37 | CCCCCC[n+]1c2c(n(CCCC)c1C)C(=O)c1ccccc1C2=O | 0.43 | 
38 | CCCCCCCCCCn1c2c([n+](C(C)CC)c1C)C(=O)c1ccccc1C2=O (stereo not given) | 0.52 | 
39 | CC[n+]1c2c(n(C)c1C)C(=O)c1ccccc1C2=O | 22 | 
40 | CCCCCCCC[n+]1c2c(n(CCCC)c1CC)C(=O)c1ccccc1C2=O | 0.49 | 
41 | CCCn1c2c([n+](C(C)CC)c1C)C(=O)c1ccccc1C2=O (stereo not given) | 5.5 | 
42 | CCCCCCCCCCCC[n+]1c2c(n(CC(C)C)c1C)C(=O)c1ccccc1C2=O | 0.54 | 

Row | Structure (SMILES) | MIC90 [1] [µM] | other results
43 | CCCCCCCCn1c2c([n+](CCCCCCCC)c1C)C(=O)c1ccccc1C2=O | 0.88 | 
44 | Cc1n(C)c2c([n+]1C(C)C)C(=O)c1ccccc1C2=O | 6.2 | 
45 | CCCC[n+]1c2c(n(C(C)C)c1C)C(=O)c1ccccc1C2=O | 3.1 | 
46 | CCCCn1c(C)nc2c1C(=O)c1ccccc1C2=O | > 50 | 
47 | CCCC[n+]1c2c(n(CC(C)C)c1C)C(=O)c1ccccc1C2=O | 1.5 | 
48 | CCCCn1c(C)nc2ccccc21 | > 50 | 
49 | CCC(C)[n+]1c2c(n(C(C)C)c1C)C(=O)c1ccccc1C2=O (stereo not given) | 11 | 
50 | CCCCn1c2c([n+](C3CC3)c1C)C(=O)c1ccccc1C2=O | 6.9 | 
51 | CCn1c(C)nc2c1C(=O)c1ccccc1C2=O | > 50 | 
52 | CCCCn1c2c([n+](C3CCC4(CCCCC4)CC3)c1C)C(=O)c1ccccc1C2=O.[Br-] | 0.3 | Ratio [5]: < 2; Activity [7]: Dose-Dependent Effect; Activity [8]: inactive; MBC [6]: 1.3 µM; Activity [9]: Active; Activity [10]: Active; Activity [11]: inactive; MIC50 [1]: 0.13 µM; Activity [12]: Dose-Dependent Effect
53 | CCCCCCn1c2c([n+](CCCCCC)c1CC)C(=O)c1ccccc1C2=O | 0.52 | 
54 | CCC(C)[n+]1c2c(n(C3CC3)c1C)C(=O)c1ccccc1C2=O (stereo not given) | 13 | 
55 | CCCCCCCCn1c2c([n+](C(C)CC)c1C)C(=O)c1ccccc1C2=O (stereo not given) | 0.46 | 
56 | Cc1nc2c(n1C(C)C)C(=O)c1ccccc1C2=O | > 50 | 
57 | CCCCCCCCCCn1c(C)nc2c1C(=O)c1ccccc1C2=O | 47 (≈ 16.6 µg/mL) | 
58 | Cc1n(C)c2c([n+]1C)C(=O)c1ccccc1C2=O | 40 | 
59 | CCCCCCCCCn1c2c([n+](CCCCCCCCC)c1C)C(=O)c1ccncc1C2=O | 2.6 | 
60 | CCCCn1c2c([n+](C(C)CC)c1C)C(=O)c1ccccc1C2=O (stereo not given) | 3.1 | 
61 | CCCCCCn1c2c([n+](CCCCCC)c1C)C(=O)c1ccncc1C2=O | 5.4 | 
62 | CCCn1c2c([n+](CC)c1C)C(=O)c1ccccc1C2=O | 8.3 | 
63 | CCCn1c2c([n+](C(C)C)c1C)C(=O)c1ccccc1C2=O | 21 | 

Row | Structure (SMILES) | MIC90 [1] [µM] | other results
64 | CCCCn1c2c([n+](CCCC)c1C)C(=O)c1cccnc1C2=O | 12 | 
65 | CCCCn1c2c([n+](CCCN3CCOCC3)c1C)C(=O)c1ccccc1C2=O | 13 | 
66 | CCCC[n+]1c2c(n(CCC)c1C)C(=O)c1ccccc1C2=O | 2.3 | 
67 | CCCCn1c2c([n+](CCCC)c1C)C(=O)c1ccncc1C2=O | 21 | 
68 | CCCCCCn1c2c([n+](CCCCCC)c1C)C(=O)c1cccnc1C2=O | 2.3 | 
69 | CCCCCCn1c2c([n+](CCCCCC)c1C)C(=O)c1ccccc1C2=O | 0.22 | Ratio [5]: < 2; MBC [6]: 0.64 µM; MIC50 [1]: 0.11 µM
70 | CCn1c2c([n+](C3CC3)c1C)C(=O)c1ccccc1C2=O | 15 | 
71 | CCCCn1c2c([n+](CC3CCCCC3)c1C)C(=O)c1ccccc1C2=O | 0.35 | 
72 | CCCCCCn1c2c([n+](C3CCC4(CCCCC4)CC3)c1C)C(=O)c1ccccc1C2=O | 0.15 | MBC [6]: 0.2 µM
73 | CCC[n+]1c2c(n(CC(C)C)c1C)C(=O)c1ccccc1C2=O | 3 | 
74 | CCCCCCCC[n+]1c2c(n(CC(C)C)c1C)C(=O)c1ccccc1C2=O | 0.26 | Ratio [5]: < 2; MIC50 [1]: 0.14 µM
75 | Cc1n(C2CC2)c2c([n+]1C1CC1)C(=O)c1ccccc1C2=O | 37 | 
76 | CCCn1c2c([n+](C3CC3)c1C)C(=O)c1ccccc1C2=O | 17 | 
77 | CCCCn1c2c([n+](Cc3ccccc3)c1C)C(=O)c1ccccc1C2=O | 0.43 | 
78 | CCCCCCCCn1c2c([n+](CCCCCC)c1C)C(=O)c1ccccc1C2=O | 0.34 | 
79 | Cc1n(C)c2c([n+]1C1CC1)C(=O)c1ccccc1C2=O | 34 | 
80 | CCCCCCCCCCn1c(C)nc2ccccc21 | 15 (≈ 4.09 µg/mL) | 
81 | CCCCCCCCCCn1c2c([n+](CCCCCCCCCC)c1C)C(=O)c1ccccc1C2=O | 3.1 | 
82 | Cc1nc2c(n1C)C(=O)c1ccccc1C2=O | > 50 | 
83 | NNC(=O)c1ccncc1 [ISONIAZID] |  | MIC50 [1]: 1.6 µM (≈ 0.219 µg/mL)
84 | CC(C)/N=c1\cc2n(-c3ccc(Cl)cc3)c3ccccc3nc-2cc1Nc1ccc(Cl)cc1 [CLOFAZIMINE] | 0.4 (≈ 0.189 µg/mL) | MIC50 [1]: 0.2 µM (≈ 0.0947 µg/mL)
